# Assay results reported in US9776965B2, “Pyrrolidin-2-one and piperidin-2-one derivatives as 11-beta hydroxysteroid dehydrogenase inhibitors” (Janssen Pharmaceutica N.V., priority 2004, dated 2017).
# pIC50: −log10 of the molar value.
# Tests used:
# 11b-HSD1 [1] = molecular target: 11b-HSD1 (Homo sapiens, UniProt P28845); experiment: Enzymatic assay, 11b-HSD1 dependent conversion of cortisone into cortisol (reductase activity); format: biochemical; conditions: recombinant protein, 2 μM cortisone, 45 min at 37 C; read-out: [C1] HSD1-prot Reduct Score
# Description: The effects of compounds on 11b-HSD1 dependent conversion of cortisone into cortisol (reductase activity) was studied in a reaction mixture containing 30 mM Tris-HCl buffer pH 7.2, 180 μM NADPH, 1 mM EDTA, 2 μM cortisone, 1 μl drug and/or solvent and 11 μg recombinant protein in a final volume of 100 μl.
# All incubations were performed for 45 min at 37 C in a water bath. The reaction was stopped by adding 100 μl acetonitrile containing 20 μg corticosterone as internal standard. After centrifugation, the product formation was analysed in the supernatant by HPLC on a Hypersyl BDS-C18 column using 0.05 mM ammonium acetate/methanol (50/50) as solvent. In all of the aforementioned assays, the drugs to be tested were taken from a stock solution and tested at a final concentration ranging from […] to 3.10^−9M. From the thus obtained dose response curves, the pIC50 value was calculated and scored as follows; Score 1=pIC50 value<5, Score 2=pIC50 value in the range of 5 to 6, Score 3=pIC50 value>6. (in this table NT stands for Not Tested).
# 11b-HSD1 [2] = molecular target: T1, 11b-HSD1 (Mus musculus, UniProt P50172); experiment: Cellular assay, 11b-HSD1 activity in differentiated 3T3-L1 cells; format: cell-based; conditions: 4 hour pre-incubation, read-out: [C2] HSD1 cellular 3T3-L1 Score
# T1 construct: Fibroblasts were differentiated into adipocytes; endogenous in cells; host or cells: differentiated 3T3-L1 cells (ATCC-CL-173)
# Description: The effects on 11b-HSD1 activity was measured in differentiated 3T3-L1 cells and rat hepatocytes.
# Mouse fibroblast 3T3-L1 cells (ATCC-CL-173) were seeded at a density of 16500 cells/ml in 12 well plates and grown for 7 days in DMEM medium (supplemented with 10% heat inactivated foetal calf serum, 2 mM glutamine and 25 mg gentamycin) at 37 C in a humidified 5% CO2 atmosphere. Medium was refreshed twice a week. Fibroblasts were differentiated into adipocytes at 37 C in a 5% CO2 humidified atmosphere in growth medium containing 2 μg/ml insulin, 55 μg/ml IBMX and 39.2 μg/ml dexamethasone.
# Following a 4 hour pre-incubation with test compound, 0.5 μCi ^3H-cortisone or dehydrocorticosterone, was added to the cultures. One hour later, the medium was extracted on Extrelut^3-columns with 15 ml diethyl ether and the extract was analysed by HPLC as described above.
# As for the enzymatic assays, the compounds to be tested were taken from a stock solution and tested at a final concentration ranging from […] to 3.10^−9M. From the thus obtained dose response curves, the pIC50 value was calculated and scored as follows; Score 1=pIC50 value<5, Score 2=pIC50 value in the range of 5 to 6, Score 3=pIC50 value>6. Some of the thus obtained results are summarized in the table below (in this table NT stands for Not Tested).
# T1 sequence (P50172 whole entry): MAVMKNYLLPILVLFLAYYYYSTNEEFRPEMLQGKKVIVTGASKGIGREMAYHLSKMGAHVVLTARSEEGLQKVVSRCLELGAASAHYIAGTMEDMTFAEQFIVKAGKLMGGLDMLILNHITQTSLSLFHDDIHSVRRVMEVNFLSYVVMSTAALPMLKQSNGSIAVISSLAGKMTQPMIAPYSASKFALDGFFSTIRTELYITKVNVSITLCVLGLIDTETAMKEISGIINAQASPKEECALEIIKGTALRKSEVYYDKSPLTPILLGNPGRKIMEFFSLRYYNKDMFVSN
# Chain of 11b-HSD1 (Homo sapiens, UniProt P28845) (P28845 whole entry): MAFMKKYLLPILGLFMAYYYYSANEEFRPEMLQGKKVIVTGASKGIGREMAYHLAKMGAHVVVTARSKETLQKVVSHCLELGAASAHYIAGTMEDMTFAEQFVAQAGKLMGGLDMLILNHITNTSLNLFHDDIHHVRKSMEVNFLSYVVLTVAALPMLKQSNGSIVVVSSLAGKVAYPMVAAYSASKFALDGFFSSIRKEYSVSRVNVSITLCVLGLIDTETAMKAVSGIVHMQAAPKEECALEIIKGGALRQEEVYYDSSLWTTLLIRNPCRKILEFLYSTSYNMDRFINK
pIC50 (11b-HSD1 [1]),pIC50 (11b-HSD1 [2]),Compound
< 5.00,> 6.00,COc1ccccc1CC1CCN(CCc2ccccc2)C1=O (stereo not drawn) [Compound 33]
5.00 to 6.00,5.00 to 6.00,O=C1C(Cc2ccccc2Cl)CCN1CCCc1ccccc1 (stereo not drawn) [Compound 111]
< 5.00,5.00 to 6.00,O=C1C(Cc2ccccc2)CCN1Cc1ccccc1 (stereo not drawn) [Compound 61]
> 6.00,5.00 to 6.00,C[C@@H](c1ccccc1)N1CC[C@H](Cc2cccc(Cl)c2Cl)C1=O [Compound 11]
5.00 to 6.00,5.00 to 6.00,Cc1cccc(CC2CCN(CCc3ccccc3)C2=O)c1 (stereo not drawn) [Compound 29]
< 5.00,5.00 to 6.00,O=C1C(Cc2cccc(O)c2)CCN1Cc1ccccc1 (stereo not drawn) [Compound 53]
< 5.00,5.00 to 6.00,COc1ccccc1C[C@H]1CCN([C@H](C)c2ccccc2)C1=O [Compound 39]
5.00 to 6.00,5.00 to 6.00,O=C1C(Cc2ccc(F)cc2F)CCN1CCc1ccccc1 (stereo not drawn) [Compound 108]
5.00 to 6.00,> 6.00,C[C@H](c1ccccc1)N1CC[C@@H](Cc2ccccc2Cl)C1=O [Compound 40]
< 5.00,5.00 to 6.00,Cc1ccccc1CC1CCCN(CCc2ccccc2)C1=O (stereo not drawn) [Compound 87]
5.00 to 6.00,5.00 to 6.00,COc1ccccc1C[C@@H]1CCN([C@@H](C)c2ccccc2)C1=O [Compound 8]
< 5.00,5.00 to 6.00,COc1cccc(CC2CCN(Cc3ccccc3)C2=O)c1 (stereo not drawn) [Compound 48]
< 5.00,> 6.00,Cc1ccc(CC2CCN(Cc3ccccc3)C2=O)cc1 (stereo not drawn) [Compound 25]

# More lines, now with the values behind:
Compound,pIC50 (11b-HSD1 [1]),pIC50 (11b-HSD1 [2])
C[C@@H](c1ccccc1)[C@@H]1CCN([C@@H](C)c2ccccc2)C1=O [Compound 158],> 6.00,> 6.00
O=C1C(Cc2c(Cl)cccc2Cl)CCN1CCc1ccc(Br)cc1 (stereo not drawn) [Compound 82],> 6.00,5.00 to 6.00
C[C@H](c1ccccc1)N1CC[C@H](Cc2cccc(Cl)c2)C1=O [Compound 47],< 5.00,5.00 to 6.00
CC[C@@H](c1ccccc1)N1CC[C@@H](Cc2c(Cl)cccc2Cl)C1=O [Compound 95],> 6.00,5.00 to 6.00
COc1ccc(CC[C@@H]2CCN([C@@H](C)c3ccccc3)C2=O)cc1 [Compound 132],5.00 to 6.00,5.00 to 6.00
C[C@H](c1ccccc1)[C@@H]1CCN([C@@H](C)c2ccccc2)C1=O [Compound 161],5.00 to 6.00,< 5.00
C[C@@H](c1ccccc1)N1CC[C@H](Cc2cccc(Cl)c2)C1=O [Compound 17],5.00 to 6.00,5.00 to 6.00
C[C@@H](c1ccccc1)N1CC[C@@H]([C@](C)(O)c2ccc(CCBr)cc2)C1=O [Compound 118],< 5.00,5.00 to 6.00
C[C@@H](c1ccccc1)N1CC[C@@H](Cc2ccc(F)cc2Cl)C1=O [Compound 151],> 6.00,> 6.00
COc1ccc(C[C@H]2CCN([C@@H](C)c3ccccc3)C2=O)c(Cl)c1OC [Compound 120],5.00 to 6.00,> 6.00
C[C@@H](c1ccccc1)N1CCC(CCc2cccc3ccccc23)(CCc2cccc3ccccc23)C1=O [Compound 116],< 5.00,< 5.00
CCCC1(Cc2ccccc2C)CCN([C@@H](C)c2ccccc2)C1=O (mixture of isomers) [Compound 146],< 5.00,< 5.00
Cc1cccc(C[C@@H]2CCN([C@H](C)c3ccccc3)C2=O)c1 [Compound 63],< 5.00,5.00 to 6.00
COc1cccc(C[C@@H]2CCN([C@@H](C)c3ccccc3)C2=O)c1 [Compound 20],< 5.00,< 5.00
C[C@@H](c1ccccc1)N1CC[C@@H](Cc2ccc3c(c2)OCO3)C1=O [Compound 153],5.00 to 6.00,5.00 to 6.00
Cc1cccc(C[C@H]2CCN([C@H](C)c3ccccc3)C2=O)c1 [Compound 68],< 5.00,5.00 to 6.00
C[C@H](c1ccccc1)[C@H]1CCN([C@@H](C)c2ccccc2)C1=O [Compound 159],> 6.00,> 6.00
